Measurements from publication PMC3481155, “AhR activation underlies the CYP1A autoinduction by A-998679 in rats” (Frontiers in Genetics, 2012).

Tests used:
[1] = tested on: Cyp1a2; test: Cyp1a2 mRNA in rat liver after 5 days of dosing (microarray, RT-PCR); format: in vivo
Method: (§1) All animal experiments were conducted in accordance with the Guiding Principles in the Use of Animals in Toxicology (http://www.toxicology.org/ai/air/air6.asp) and were approved by Abbott's Institutional Animal Care and Use Committee (IACUC). Male Sprague-Dawley rats [Crl:CD®(SD)IGS BR], weighing ~250 g at study initiation were obtained from Charles River Laboratories, Inc. (Wilmington, MA). Rats were housed singly in ventilated, stainless steel, wire-bottom hanging cages and fed non-certified Rodent Chow (Harlan Labs, Madison, WI), and water ad libitum and acclimated for at least 5 days after arrival. […] Serum clinical chemistry parameters were quantified using an Aeroset Clinical Chemistry Analyzer (Abbott Laboratories, Abbott Park, IL) and included alanine amino transferase (ALT), aspartate amino transferase (AST), gamma glutamyltransferase (GGT), and alkaline phosphatase (ALP) activities.
(§2) Frozen liver or jejunum were immediately added to 4 ml of TRIzol reagent (Invitrogen Life Technologies) and homogenized using a Polytron 300D homogenizer (Brinkman Instruments, Westbury, NY). […] Nucleic acid concentration was determined by OD 260 nm (Smart-Spec, Bio-Rad Laboratories, Hercules, CA), and RNA integrity was evaluated using an Agilent 2100 bioanalyzer (Agilent Technologies, Foster City, CA). […]

[2] = tested on: CYP1A2; test: CYP inhibition evaluation in human liver microsomes, CYP1A2 (phenacetin); format: in vitro ADME; conditions: pH 7.4, probe substrate phenacetin
Method: Incubations were performed in human liver microsomes using probe substrate concentrations similar to their corresponding Km values. Enzyme activity was evaluated in the presence of various concentrations of A-998679. The incubations consisted of the test article at varying concentrations (0–30 μM), probe substrate (concentration ~Km, see Table A2), human liver microsomal protein and 1 mM NADPH in 50 mM phosphate buffer at pH 7.4. Relative quantitation of the metabolites was obtained by LC-MS/MS using an ABSciex (Foster City, CA) API3000 or API4000 Qtrap hybrid linear ion trap mass spectrometer equipped with a TurboIonspray source using either PerkinElmer series 200 pumps or Agilent 1100 series pump with a Leap autosampler. Analytes were separated using a Phenomenex Prodigy ODS(3) 5 μm, 50 × 2.0 mm column at 50°C, eluted and detected under the specific conditions listed in Tables A3, A4, and A5. The analyte to internal standard peak area ratios were determined using Analyst 1.4 software (Applied Biosytems, Carlsbad, CA). The peak area ratios observed in the presence of test article were compared to the vehicle control in order to determine percent activity. To determine the IC50, the data were plotted as Log [dose] μM vs. % inhibition, and analyzed with a sigmoidal dose-response (variable slope) fitting equation. […]

[3] = tested on: Mrp2; test: Mrp2 expression in rat small intestine; format: in vivo; conditions: treated rats; data not shown
Method: as §1, §2

Cyp1a2 mRNA increase in rat liver (microarray) ([1]; 5 days of dosing, in at least one animal starting at the 100 mg/kg dose): 2–3 fold
Cyp1a2 mRNA expression in rat liver (RT-PCR) ([1]; 5 days, all doses (30, 100, 200 mg/kg/day)): strongly induced
IC50 [2]: 460 nM
Structure (SMILES): N#Cc1cccc(-c2noc(-c3cccnc3)n2)c1 [A-998679, 3-(5-pyridin-3-yl-1,2,4-oxadiazol-3-yl) benzonitrile]
expression of Mrp2 in small intestine [3]: increased expression
